Legend:
Echinochloa crus-galli [1] = assay: Herbicidal activity by field foliage treatment (Test example 3); assay type: in vivo; parameters: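 index 0 to 10 in 10% steps of herbicidal effect with 10 meaning complete death and 0 below 10%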; conditions: 1000 g effective component per hectare, day 14 after the treatment
How it was run: (§1)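 Potted field-soil plants grown 2 weeks in a greenhouse were sprayed over the whole foliage with diluted wettable powder at 1000 L/ha, delivering 1000 g active ingredient per hectare. Herbicidal effect scored by visual criteria 14 days after treatment.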

foxtail = assay: Herbicidal activity by field soil treatment (Test example 2); assay type: in vivo; conditions: 1000 g effective component per hectare, day 21 after the treatment;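 further: index 0 to 10 in 10% steps of herbicidal effect with 10 meaning complete death and 0 below 10%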
How it was run: (§2)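 Seeds of the four weeds sown in field soil in pots; wettable powder diluted in water sprayed pre-emergence on soil surface at 1000 L/ha, giving 1000 g active per hectare. Greenhouse grown; herbicidal effect scored on day 21 after treatment by set criteria.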

Echinochloa crus-galli [2] = assay: as above; assay type: in vivo; parameters: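 index 0 to 10 in 10% steps of herbicidal effect with 10 meaning complete death and 0 below 10%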; conditions: 1000 g effective component per hectare, day 21 after the treatment
How it was run: as §2

A. retroflexus [3] = assay: as above; assay type: in vivo; parameters: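 index 0 to 10 in 10% steps of herbicidal effect with 10 meaning complete death and 0 below 10%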; conditions: 1000 g effective component per hectare, day 21 after the treatment
How it was run: as §2

Indian millet [4] = assay: as above; assay type: in vivo; parameters: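 index 0 to 10 in 10% steps of herbicidal effect with 10 meaning complete death and 0 below 10%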; conditions: 1000 g effective component per hectare, day 21 after the treatment
How it was run: as §2

Monochoria vaginalis = assay: Herbicidal activity by paddy field soil treatment (Test Example 1); assay type: in vivo; parameters: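 index 0 to 10 in 10% steps of herbicidal effect with 10 meaning complete death and 0 below 10%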; conditions: 1000 g of effective component per hectare, evaluated on day 21 after the treatment, criteria of Table 72
How it was run: (§3)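 Paddy soil in pots sown with seeds, flooded to 3 cm; next day wettable powder diluted in water applied to water surface at 1000 g active ingredient/ha. Greenhouse-grown; herbicidal effect scored on day 21 after treatment against rating criteria.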

Scirpus juncoides Rocxb. = assay: as above; assay type: in vivo; parameters: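 index 0 to 10 in 10% steps of herbicidal effect with 10 meaning complete death and 0 below 10%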; conditions: applied on water surface, 1000 g of effective component per hectare, day 21 after the treatment
How it was run: as §3

Echinochloa oryzicola = assay: as above; assay type: in vivo; parameters: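 index 0 to 10 in 10% steps of herbicidal effect with 10 meaning complete death and 0 below 10%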; conditions: 1000 g of effective component per hectare, evaluated on day 21 after the treatment, criteria of Table 72
How it was run: as §3

A. retroflexus [5] = assay: Herbicidal activity by field foliage treatment (Test example 3); assay type: in vivo; parameters: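 index 0 to 10 in 10% steps of herbicidal effect with 10 meaning complete death and 0 below 10%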; conditions: 1000 g effective component per hectare, day 14 after the treatment
How it was run: (§4)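 Field soil in pots; Indian millet and A. retroflexus grown 2 weeks in greenhouse, then sprayed over whole plant with water-diluted wettable powder at 1000 L/ha, giving 1000 g active component/ha. Herbicidal effect scored by set criteria on day 14 after treatment.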

Indian millet [6] = assay: as above; assay type: in vivo; parameters: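 index 0 to 10 in 10% steps of herbicidal effect with 10 meaning complete death and 0 below 10%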; conditions: 1000 g effective component per hectare, day 14 after the treatment
How it was run: as §4

Setaria viridis = assay: as above; assay type: in vivo; conditions: 1000 g effective component per hectare, day 14 after the treatment;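 further: index 0 to 10 in 10% steps of herbicidal effect with 10 meaning complete death and 0 below 10%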
How it was run: as §1

melting point	SMILES	herbicidal effect index, Echinochloa crus-galli (Echinochloa crus-galli [1])	herbicidal effect index, Setaria viridis (foxtail)	herbicidal effect index, Echinochloa crus-galli (Echinochloa crus-galli [2])	herbicidal effect index, Amaranthus retroflexus (A. retroflexus [3])	herbicidal effect index, Abutilon theophrasti (Indian millet [4])	Herbicidal effects index number, Monochoria vaginalis (Monochoria vaginalis)	herbicidal effect index, S. juncoides Rocxb. (Scirpus juncoides Rocxb.)	Herbicidal effects index number, Echinochloa oryzicola (Echinochloa oryzicola)	herbicidal effect index, Amaranthus retroflexus (A. retroflexus [5])	herbicidal effect index, Abutilon theophrasti (Indian millet [6])	herbicidal effect index, Setaria viridis (Setaria viridis)
	Cn1nc(C(=O)C2=C(O)CCCC2=O)c(=O)n(C2C=CCCC2)c1=O (centres unmarked) [I-303]	8	9	9	10	9	10	10	10	10	9	10
	Cn1nc(C(=O)C2=C(O)CCCC2=O)c(=O)n(N2CCCCC2)c1=O [I-304]	10	9	10	10	10	10	10	10	10	9	10
195 to 198 °C	Cn1nc(C(=O)O)c(=O)n(-c2ccccc2)c1=O [V-50, 2-methyl-3,5-dioxo-4-phenyl-2,3,4,5-tetrahydro-1,2,4-triazine-6-carboxylic acid]											
213 to 215 °C	Cn1nc(C(=O)O)c(=O)n(-c2ccccc2C#N)c1=O [V-72, 2-methyl-3,5-dioxo-4-(2-cyanophenyl)-2,3,4,5-tetrahydro-1,2,4-triazine-6-carboxylic acid]											
	CC1CC(C)(C)C(=O)C(C(=O)c2nn(C)c(=O)n(-c3ccccc3)c2=O)=C1O (centres unmarked) [VI-7]	10	10	10	10	10	10	10	10	10	10	10
